# System: spinal cord transcriptome
# Experiment: RNA-Seq of spinal cord tissue from 2B/- and 2B/+ mice
# Type: in vivo, mouse
# [1] = spinal cord, 2B/- RG3039 vs 2B/- vehicle, adjusted p-value 2.55E-55
smiles,measurement,setting,value
Nc1nc(N)c2c(OCC3CCN(Cc4c(Cl)cccc4Cl)CC3)cccc2n1 [RG3039],log2(fold-change),"2B-Veh vs 2B-RG3039, gene Osbpl3",0.3051
same,log2(fold-change),"2B-Veh vs 2B-RG3039, gene Phf13",0.2527
same,log2(fold-change),"2B-Veh vs 2B-RG3039, gene Pigz",-0.3408
same,log2(fold-change),"2B-Veh vs 2B-RG3039, gene Pik3r1",-0.2417
same,log2(fold-change),"2B-Veh vs 2B-RG3039, gene Plcb1",-0.2064
same,log2(fold-change),"2B-Veh vs 2B-RG3039, gene Pld2",0.3673
same,log2(fold-change),"2B-Veh vs 2B-RG3039, gene Prr18",-0.2462
same,log2(fold-change),"2B-Veh vs 2B-RG3039, gene Ptbp1",0.3576
same,log2(fold-change),"2B-Veh vs 2B-RG3039, gene Ptpdc1",-0.3585
same,log2(fold-change),"2B-Veh vs 2B-RG3039, gene Pvrl3",0.3266
same,log2(fold-change),"2B-Veh vs 2B-RG3039, gene Rab31",-0.2849
same,log2(fold-change),"2B-Veh vs 2B-RG3039, gene Ralb",0.1805
same,log2(fold-change),"2B-Veh vs 2B-RG3039, gene Rapgef3",-0.3391
same,log2(fold-change),"2B-Veh vs 2B-RG3039, gene Rasal1",-0.2345
same,log2(fold-change),"2B-Veh vs 2B-RG3039, gene Rgs19",0.2532
same,log2(fold-change),"2B-Veh vs 2B-RG3039, gene Serpina3n",-0.2457
same,log2(fold-change),"2B-Veh vs 2B-RG3039, gene Sh3pxd2a",0.3024
same,log2(fold-change),"2B-Veh vs 2B-RG3039, gene Slc39a11",0.2556
same,log2(fold-change),"2B-Veh vs 2B-RG3039, gene Sox13",0.3712
same,log2(fold-change),"2B-Veh vs 2B-RG3039, gene Spon1",-0.207
same,log2(fold-change),"2B-Veh vs 2B-RG3039, gene Srsf9",0.255
same,log2(fold-change),"2B-Veh vs 2B-RG3039, gene Stxbp3a",-0.2437
same,log2(fold-change),"2B-Veh vs 2B-RG3039, gene Swap70",0.2496
same,log2(fold-change),"2B-Veh vs 2B-RG3039, gene Tfrc",0.316
same,log2(fold-change),"2B-Veh vs 2B-RG3039, gene Tlcd1",0.158
same,log2(fold-change),"2B-Veh vs 2B-RG3039, gene Tmod1",-0.2447
same,log2(fold-change),"2B-Veh vs 2B-RG3039, gene Tubb2b",0.2818
same,log2(fold-change),"2B-Veh vs 2B-RG3039, gene Vgf",0.2475
same,log2(fold-change),"2B-Veh vs 2B-RG3039, gene Vps37b",0.2543
same,log2(fold-change),"2B-Veh vs 2B-RG3039, gene Wbscr27",-0.2613
same,log2(fold-change),"2B-Veh vs 2B-RG3039, gene Wnt7b",0.3209
same,log2(fold-change),"2B-Veh vs 2B-RG3039, gene Zfp276",-0.2722
same,log2(fold-change),"2B-Veh vs 2B-RG3039, gene Zfp692",-0.2503
same,log2(fold-change),"2B-Veh vs 2B-RG3039, gene Zfp839",-0.2535
same,log2(fold-change),"2B-Veh vs 2B-RG3039, gene Zhx3",-0.2128
same,log2(fold-change),"2B-Veh vs 2B-RG3039, gene Zmat1",-0.3673
same,log2(fold-change),"mouse, in vivo",0.2853
same,log2(fold-change) Chodl transcript,"spinal cord RNA-Seq, 2B- RG vs. 2B+ Veh (sheet WT-Veh_vs_2B-859_all), adjusted p-value 1.03E-56",-2.122
same,log2(fold-change) 4632404H12Rik transcript,"spinal cord RNA-Seq, 2B- RG vs. 2B+ Veh (sheet WT-Veh_vs_2B-859_all), adjusted p-value 1.30E-36",1.504
same,log2(fold-change) Spp1 transcript,"spinal cord RNA-Seq, 2B- RG vs. 2B+ Veh (sheet WT-Veh_vs_2B-859_all), adjusted p-value 1.87E-42",-1.107
same,log2(fold-change) Gm26924 transcript,"spinal cord RNA-Seq, 2B- RG vs. 2B+ Veh (sheet WT-Veh_vs_2B-859_all), adjusted p-value 5.93E-43",-1.355
same,log2(fold-change) Ahnak2 transcript,"spinal cord RNA-Seq, 2B- RG vs. 2B+ Veh (sheet WT-Veh_vs_2B-859_all), adjusted p-value 8.66E-40",-1.26
same,log2(fold-change) Tgtp1 transcript,"spinal cord RNA-Seq, RG3039 2B/- vs. vehicle 2B/-, adjusted p-value 0.000273937",1.848
same,log2(fold-change) Cfd transcript,"spinal cord RNA-Seq, RG3039 2B/- vs. vehicle 2B/-, adjusted p-value 0.000300401",-2.755
same,log2(fold-change) Kcnb2 transcript,"spinal cord RNA-Seq, RG3039 2B/- vs. vehicle 2B/-, adjusted p-value 0.000330855",1.602
same,log2(fold-change) Fabp4 transcript,"spinal cord RNA-Seq, RG3039 2B/- vs. vehicle 2B/-, adjusted p-value 0.000349974",-2.327
same,log2(fold-change) Reg3b transcript,"spinal cord RNA-Seq, RG3039 2B/- vs. vehicle 2B/-, adjusted p-value 0.00104281",1.9386
same,log2(fold-change) Saa3 transcript,"spinal cord RNA-Seq, RG3039 2B/- vs. vehicle 2B/-, adjusted p-value 0.0020931",-2.03
same,log2(fold-change) Tgtp2 transcript,"spinal cord RNA-Seq, RG3039 2B/- vs. vehicle 2B/-, adjusted p-value 0.00223451",1.688
same,log2(fold-change) Slfn10-ps transcript,"spinal cord RNA-Seq, RG3039 2B/- vs. vehicle 2B/-, adjusted p-value 0.00233365",1.807
same,log2(fold-change) Gm10629 transcript,"spinal cord RNA-Seq, RG3039 2B/- vs. vehicle 2B/-, adjusted p-value 0.00341009",1.585
same,log2(fold-change) Myh4 transcript,"spinal cord RNA-Seq, RG3039 2B/- vs. vehicle 2B/-, adjusted p-value 0.0039906",-2.1375
same,log2(fold-change) Amtn transcript,"spinal cord RNA-Seq, RG3039 2B/- vs. vehicle 2B/-, adjusted p-value 0.00445577",1.585
same,log2(fold-change) Gm21807 transcript,"spinal cord RNA-Seq, RG3039 2B/- vs. vehicle 2B/-, adjusted p-value 0.00737848",1.663
same,log2(fold-change) Ak3l2-ps transcript,"spinal cord RNA-Seq, RG3039 2B/- vs. vehicle 2B/-, adjusted p-value 0.0076012",1.688
same,log2(fold-change) Gm25014 transcript,"spinal cord RNA-Seq, RG3039 2B/- vs. vehicle 2B/-, adjusted p-value 0.00761921",1.585
same,log2(fold-change) Mrgprd transcript,"spinal cord RNA-Seq, RG3039 2B/- vs. vehicle 2B/-, adjusted p-value 0.0177741",1.807
same,log2(fold-change) Ucp1 transcript,"spinal cord RNA-Seq, RG3039 2B/- vs. vehicle 2B/-, adjusted p-value 0.0259172",-1.858
same,log2(fold-change) Scn10a transcript,"spinal cord RNA-Seq, RG3039 2B/- vs. vehicle 2B/-, adjusted p-value 0.0498434",1.7
same,log2(fold-change) 4930481A15Rik transcript,"spinal cord RNA-Seq, RG3039 2B/- vs. vehicle 2B/-, adjusted p-value 1.16E-05",-2.273
same,log2(fold-change) Gm13558 transcript,"spinal cord RNA-Seq, RG3039 2B/- vs. vehicle 2B/-, adjusted p-value 1.21E-05",-2
same,log2(fold-change) Itga2 transcript,"spinal cord RNA-Seq, RG3039 2B/- vs. vehicle 2B/-, adjusted p-value 1.25E-05",1.883
same,log2(fold-change) Ifi44 transcript,"spinal cord RNA-Seq, RG3039 2B/- vs. vehicle 2B/-, adjusted p-value 1.41E-22",2.678
same,log2(fold-change) Etnppl transcript,"spinal cord RNA-Seq, RG3039 2B/- vs. vehicle 2B/-, adjusted p-value 2.00E-23",-2.764
same,log2(fold-change) Ada transcript,"spinal cord RNA-Seq, RG3039 2B/- vs. vehicle 2B/-, adjusted p-value 2.62E-17",-2.097
same,log2(fold-change) Sgk1 transcript,"spinal cord RNA-Seq, RG3039 2B/- vs. vehicle 2B/-, adjusted p-value 2.77E-28",-1.812
same,log2(fold-change) Dpep1 transcript,"spinal cord RNA-Seq, RG3039 2B/- vs. vehicle 2B/-, adjusted p-value 3.30E-07",-2.385
same,log2(fold-change) Tmem52 transcript,"spinal cord RNA-Seq, RG3039 2B/- vs. vehicle 2B/-, adjusted p-value 3.37E-32",-2.209
same,log2(fold-change) A830073O21Rik transcript,"spinal cord RNA-Seq, RG3039 2B/- vs. vehicle 2B/-, adjusted p-value 3.74E-09",1.69
same,log2(fold-change) Usp18 transcript,"spinal cord RNA-Seq, RG3039 2B/- vs. vehicle 2B/-, adjusted p-value 4.16E-13",1.709
same,log2(fold-change) Slc10a6 transcript,"spinal cord RNA-Seq, RG3039 2B/- vs. vehicle 2B/-, adjusted p-value 4.39E-06",-2.443
same,log2(fold-change) Oas1a transcript,"spinal cord RNA-Seq, RG3039 2B/- vs. vehicle 2B/-, adjusted p-value 4.66E-07",1.712
same,log2(fold-change) Plin4 transcript,"spinal cord RNA-Seq, RG3039 2B/- vs. vehicle 2B/-, adjusted p-value 4.90E-27",-3.356
same,log2(fold-change) Map3k6 transcript,"spinal cord RNA-Seq, RG3039 2B/- vs. vehicle 2B/-, adjusted p-value 5.02E-31",-2.942
same,log2(fold-change) 8430408G22Rik transcript,"spinal cord RNA-Seq, RG3039 2B/- vs. vehicle 2B/-, adjusted p-value 5.30E-09",-1.92
same,log2(fold-change) Fmo2 transcript,"spinal cord RNA-Seq, RG3039 2B/- vs. vehicle 2B/-, adjusted p-value 6.18E-07",-2.118
same,log2(fold-change) Tmem82 transcript,"spinal cord RNA-Seq, RG3039 2B/- vs. vehicle 2B/-, adjusted p-value 7.17E-13",-2.075
same,log2(fold-change) Sds transcript,"spinal cord RNA-Seq, RG3039 2B/- vs. vehicle 2B/-, adjusted p-value 7.23E-13",-2.356
same,log2(fold-change) Gp2 transcript,"spinal cord RNA-Seq, RG3039 2B/- vs. vehicle 2B/-, adjusted p-value 7.46E-06",1.536
same,log2(fold-change) Gm11827 transcript,"spinal cord RNA-Seq, RG3039 2B/- vs. vehicle 2B/-, adjusted p-value 7.82E-08",-2.193
same,log2(fold-change) Chml transcript,"spinal cord RNA-Seq, RG3039 2B/- vs. vehicle 2B/-, adjusted p-value 8.74E-18",1.585
same,log2(fold-change) Gm15622 transcript,"spinal cord RNA-Seq, RG3039 2B/- vs. vehicle 2B/-, adjusted p-value 9.01E-05",2.027
same,share of detectable genes modulated,"spinal cord, 2B/+ control mice",less than 0.5%
same,"log2(fold-change), gene Mt1","spinal cord, 2B/- RG3039 vs 2B/- vehicle, adjusted p-value 1.29E-57",-1.302
same,"log2(fold-change), gene Polr3e","spinal cord, 2B/- RG3039 vs 2B/- vehicle, adjusted p-value 1.67E-54",-1.443
same,"log2(fold-change), gene Fam107a",[1],-1.657
same,"log2(fold-change), gene Fkbp5",[1],-1.583
same,"log2(fold-change), gene Mt2","spinal cord, 2B/- RG3039 vs 2B/- vehicle, adjusted p-value 2.67E-76",-1.696
same,Smn transcripts as detected by RNA-Seq,"spinal cord, 2B/- SMA mice",did not appear to increase Smn transcripts
same,share of the measurable genes with altered expression,"spinal cord, 2B/- SMA mice RG3039 vs vehicle",approximately 26.8%
same,genes with significantly (P < 0.05) altered expression,"spinal cord, 2B/- SMA mice RG3039 vs vehicle-treated 2B/-","5,497 genes"
same,genes affected in opposite directions by disease and by compound treatment,"spinal cord, 2B/- mice",591 genes
same,ZPR1 expression in whole spinal cord by RNA-seq,vehicle vs RG3039 treated SMA mice,no difference in ZPR1 expression
